Measurements reported in patent US20250136702A1, “HUMAN LIFR ANTIGEN BINDING PROTEIN, PREPARATION METHOD THEREFOR, AND APPLICATION THEREOF” (NONA BIOSCIENCES (SUZHOU) CO., LTD., priority 2020, published 2025).

System: Human pancreatic cancer Capan-2 cells
Experiment: Pharmacodynamics in Capan-2 tumor mouse model
Assay type: in vivo, Balb/c nude mice
Conditions: Capan-2 model, TIW × 9 doses
Description: In this experiment, Capan-2 tumor mouse model was used to study the anti-tumor activity of anti-human LIFR antibody. The pharmacodynamics of PR300516 antibody administered alone (5 mg/kg and 15 mg/kg) in Capan-2 mouse model were studied. Human pancreatic cancer Capan-2 cells (ATCC cell bank) were subcutaneously inoculated into female Balb/c nude mice (charles river). The treatment method of the antibody group is: on the 5th day, the 9th day, the 12th day, the 16th day, the 19th day and the 23rd day after the tumor cell inoculation, the mice of each group are injected with the corresponding antibodies in the intraperitoneal cavity. The treatment method of the small molecule inhibitor group is: EC359 small molecule inhibitors were administered orally to mice on days 5, 7, 9, 12, 14, 16, 19, 21 and 23 after tumor cell inoculation. The tumor volume was measured on the 5th, 9th, 12th, 16th, 19th and 23rd days after tumor cell inoculation, and then the mice were euthanized.

## C#CC(F)(F)[C@]1(O)CC[C@H]2[C@@H]3CCC4=CC(=O)CCC4=C3[C@@H](c3ccc(-c4c(C)cc(C)cc4C)cc3)C[C@@]21C [EC359, reference compound]
5 mg/kg oral
  TGI (%): 40.99%
15 mg/kg oral
  TGI (%): 47.85%
